Literature values in patent US7618664B2 (Cooperatieve Verkoop-en Productievereniging Van …, priority 2001, dated 2009).

Conditions: human body

Substance: calcium gluconate
- toxicity: essentially not show any toxicity
